{"source": "paper PMC12431657", "about": "“Discovery and mechanistic insights of dibenzoylmethane as a broad spectrum inhibitor of coronavirus” (PLOS Pathogens, 2025)", "key": {"HCoV-NL63": {"test_system": "HCoV-NL63", "test": "Antiviral activity in vitro, HCoV-NL63", "type": "cell-based", "conditions": "Human coronavirus NL63, read-out: EC50 HCoV-NL63"}, "caspase-6": {"test_system": "caspase-6", "type": "cell-based"}, "HCoV-OC43": {"test_system": "HCoV-OC43", "test": "Viral entry and internalization assay", "type": "cell-based", "conditions": "confocal microscopy", "method": "To obtain further insight into the stage at which DBM inhibits the replication of HCoV-OC43 and other HCoVs, RD cells were incubated with compounds, including DBM, remdesivir (RDV), and chloroquine (CQ), at different stages of viral infection. Viral RNA from the supernatant was extracted and quantitatively analysed via qRT-PCR. […] For the viral binding assay, cells were cultured in the presence or absence of DBM at different concentrations for 1 hour before being infected with HCoV-OC43 at an MOI of 50, and then were placed on ice for 2 hours for the viral particles to bind to the membrane of the host cells, followed by washing with PBS. […] In addition to binding to receptors from host cells, the spike proteins of HCoV-OC43 could also trigger membrane fusion when HCoV-OC43 spike plasmid-transfected 293T cells were seeded together with RD cells as target cells, and the addition of DBM had no effect on this process (S5C Fig). […] To determine whether DBM influences viral release, we quantified viral RNA both intracellularly and in the supernatant.\nThe cells were seeded at a low density onto 35 mm glass bottom dishes with 10 mm microwells (Cellvis) and incubated overnight at 37 °C. […] The number of intracellular virus particles was quantified with ImageJ software."}, "mammary tumorigenesis": {"test_system": "mammary tumorigenesis", "design": "method as in PMID 11403916", "conditions": "dietary DBM, mice; cited from earlier work"}}, "note": "Where “and” joins values, the source holds several entries; their conditions need not be identical. Equal entries are not always repeated.", "data": [{"smiles": "O=C(CC(=O)c1ccccc1)c1ccccc1", "note": "[DBM, dibenzoylmethane]", "values": [{"measurement": "EC50", "setting": "HCoV-NL63", "value": 11.7, "unit": "µM"}, {"measurement": "Caspase-6/CASP6 level relative to DMSO (Fig5I)", "setting": "caspase-6", "value": "75.9 and 67.7 and 60.2 and 63.8"}, {"measurement": "relative level of CASP6 mRNA", "setting": "caspase-6", "value": "decreased"}, {"measurement": "viral internalisation", "setting": "HCoV-OC43", "value": "did not interfere"}, {"measurement": "reduction of tumor incidence", "setting": "mammary tumorigenesis", "value": 97, "unit": "%"}]}]}
